Reference: ChEMBL document CHEMBL3132789, “Effect of the 4-substituted phenylalanine moiety of sansalvamide A peptide on antitumor activity” (Medchemcomm, 2014)
In brackets after ≈: the same amount, converted by molar mass. Activity calls are given as the source filed them. No cut-off for these calls is given here. Square brackets hold non-standard residues; d marks the D form. Peptide text beside a SMILES is read from it. Phe(4-Br) = N[C@@H](Cc1ccc(Br)cc1)C(=O)O; Phe(4-Cl) = N[C@@H](Cc1ccc(Cl)cc1)C(=O)O; Phe(4-F) = N[C@@H](Cc1ccc(F)cc1)C(=O)O; Phe(4-I) = N[C@@H](Cc1ccc(I)cc1)C(=O)O; Hica(2S) = CC(C)C[C@H](O)C(=O)O

Tests used:
[1] = test system: HCT-116; test: Cytotoxicity against human HCT116 cells after 72 hrs by [3H]-thymidine uptake assay; format: functional, cell-based
[2] = test system: A549; test: Cytotoxicity against human A549 cells assessed as growth inhibition at 20 ug/ml after 72 hrs by [3H]-thymidine uptake assay; format: functional; conditions: read-out: GI
[3] = test system: K562; test: Cytotoxicity against human K562 cells assessed as growth inhibition at 20 ug/ml after 72 hrs by [3H]-thymidine uptake assay; format: functional; conditions: read-out: GI
[4] = test system: MDA-MB-231; test: Cytotoxicity against human MDA-MB-231 cells assessed as growth inhibition at 20 ug/ml after 72 hrs by [3H]-thymidine uptake assay; format: functional; conditions: read-out: GI
[5] = test system: HT-29; test: Cytotoxicity against human HT-29 cells assessed as growth inhibition at 20 ug/ml after 72 hrs by [3H]-thymidine uptake assay; format: functional; conditions: read-out: GI
[6] = test system: HCT-15; test: Cytotoxicity against human HCT15 cells assessed as growth inhibition at 20 ug/ml after 72 hrs by [3H]-thymidine uptake assay; format: functional; conditions: read-out: GI
[7] = test system: HeLa; test: Cytotoxicity against human HeLa cells after 72 hrs by [3H]-thymidine uptake assay; format: functional, cell-based
[8] = test system: K562; test: Cytotoxicity against human K562 cells assessed as growth inhibition at 2 ug/ml after 72 hrs by [3H]-thymidine uptake assay; format: functional; conditions: read-out: GI
[9] = test system: A549; test: Cytotoxicity against human A549 cells assessed as growth inhibition at 2 ug/ml after 72 hrs by [3H]-thymidine uptake assay; format: functional; conditions: read-out: GI
[10] = test system: A549; test: Cytotoxicity against human A549 cells after 72 hrs by [3H]-thymidine uptake assay; format: functional, cell-based
[11] = test system: HT-29; test: Cytotoxicity against human HT-29 cells after 72 hrs by [3H]-thymidine uptake assay; format: functional, cell-based
[12] = test system: HeLa; test: Induction of apoptosis in human HeLa cells assessed as decrease in cell density at 1.8 ug/ml after 24 hrs by light microscopy analysis; format: functional, cell-based
[13] = test system: MDA-MB-231; test: Cytotoxicity against human MDA-MB-231 cells assessed as growth inhibition at 2 ug/ml after 72 hrs by [3H]-thymidine uptake assay; format: functional; conditions: read-out: GI
[14] = test system: HeLa; test: Induction of apoptosis in human HeLa cells assessed as rounded and smaller cells at 1.8 ug/ml after 24 hrs by light microscopy analysis; format: functional, cell-based
[15] = test system: K562; test: Cytotoxicity against human K562 cells after 72 hrs by [3H]-thymidine uptake assay; format: functional, cell-based
[16] = test system: MDA-MB-231; test: Cytotoxicity against human MDA-MB-231 cells after 72 hrs by [3H]-thymidine uptake assay; format: functional, cell-based
[17] = Induction of apoptosis in human VSMC cells assessed as morphological changes at 1.8 ug/ml after 24 hrs by light microscopy analysis; format: cell-based
[18] = test system: HCT-15; test: Cytotoxicity against human HCT15 cells after 72 hrs by [3H]-thymidine uptake assay; format: functional, cell-based
[19] = test system: HT-29; test: Cytotoxicity against human HT-29 cells assessed as growth inhibition at 2 ug/ml after 72 hrs by [3H]-thymidine uptake assay; format: functional; conditions: read-out: GI
[20] = test system: HeLa; test: Induction of apoptosis in human HeLa cells assessed as membrane blebbing and nuclear fragmentation at 1.8 ug/ml after 24 hrs by light microscopy analysis; format: functional, cell-based
[21] = test system: HeLa; test: Cytotoxicity against human HeLa cells assessed as growth inhibition at 2 ug/ml after 72 hrs by [3H]-thymidine uptake assay; format: functional; conditions: read-out: GI
[22] = test system: HCT-15; test: Cytotoxicity against human HCT15 cells assessed as growth inhibition at 2 ug/ml after 72 hrs by [3H]-thymidine uptake assay; format: functional; conditions: read-out: GI

CC(C)C[C@@H]1NC(=O)[C@H](C(C)C)NC(=O)[C@H](CC(C)C)OC(=O)[C@H](CC(C)C)NC(=O)[C@H](Cc2ccc(Br)cc2)NC1=O (cyclo(L[Phe(4-Br)]L[Hica(2S)]V))
IC50 [1]: 4.5 µg/mL (≈ 6.76 µM)

CC(C)C[C@@H]1NC(=O)[C@H](Cc2ccc(F)cc2)NC(=O)[C@H](CC(C)C)NC(=O)[C@H](C(C)C)NC(=O)[C@H](CC(C)C)NC1=O (cyclo(LLVL[Phe(4-F)]))
inhibition of growth at 20 µg/mL [2]: 30.8%
inhibition of growth at 20 µg/mL [3]: 58.2%
inhibition of growth at 20 µg/mL [4]: 12.3%
inhibition of growth at 20 µg/mL [5]: 0%
inhibition of growth at 20 µg/mL [6]: 21%

CC(C)C[C@@H]1NC(=O)[C@H](C(C)C)NC(=O)[C@H](CC(C)C)OC(=O)[C@H](CC(C)C)NC(=O)[C@H](Cc2ccccc2)NC1=O (cyclo(FL[Hica(2S)]VL))
IC50 [1]: 9.8 µg/mL (≈ 16.7 µM)

CC(C)C[C@@H]1NC(=O)[C@H](Cc2ccc(I)cc2)NC(=O)[C@H](CC(C)C)NC(=O)[C@H](C(C)C)NC(=O)[C@H](CC(C)C)NC1=O (cyclo(LLVL[Phe(4-I)]))
IC50 [1]: 1.12 µg/mL (≈ 1.57 µM)

CC(C)C[C@@H]1NC(=O)[C@H](Cc2ccccc2)NC(=O)[C@H](CC(C)C)NC(=O)[C@H](C(C)C)NC(=O)[C@H](CC(C)C)NC1=O (cyclo(FLLVL))
IC50 [1]: 0.98 µg/mL (≈ 1.67 µM)
inhibition of growth at 20 µg/mL [2]: 26.6%
inhibition of growth at 20 µg/mL [3]: 45.3%
inhibition of growth at 20 µg/mL [4]: 23.6%
inhibition of growth at 20 µg/mL [5]: 21.5%
inhibition of growth at 20 µg/mL [6]: 23.1%

CC(C)C[C@@H]1NC(=O)[C@H](C(C)C)NC(=O)[C@H](CC(C)C)OC(=O)[C@H](CC(C)C)NC(=O)[C@H](Cc2ccc(I)cc2)NC1=O (cyclo(L[Phe(4-I)]L[Hica(2S)]V))
IC50 [1]: 11.3 µg/mL (≈ 15.9 µM)

CC(C)C[C@@H]1NC(=O)[C@H](Cc2ccc(O)cc2)NC(=O)[C@H](CC(C)C)NC(=O)[C@H](C(C)C)NC(=O)[C@H](CC(C)C)NC1=O (cyclo(LLVLY))
inhibition of growth at 20 µg/mL [4]: 42.5%
inhibition of growth at 20 µg/mL [5]: 34.6%
inhibition of growth at 20 µg/mL [6]: 52%

CC(C)C[C@@H]1NC(=O)[C@H](Cc2ccc(Cl)cc2)NC(=O)[C@H](CC(C)C)NC(=O)[C@H](C(C)C)NC(=O)[C@H](CC(C)C)NC1=O (cyclo(LLVL[Phe(4-Cl)]))
inhibition of growth at 20 µg/mL [2]: 5.2%
inhibition of growth at 20 µg/mL [3]: 3.57%
inhibition of growth at 20 µg/mL [4]: 15%
inhibition of growth at 20 µg/mL [5]: 1.23%
inhibition of growth at 20 µg/mL [6]: 1.21%

COc1ccc(C[C@@H]2NC(=O)[C@H](CC(C)C)NC(=O)[C@H](C(C)C)NC(=O)[C@H](CC(C)C)NC(=O)[C@H](CC(C)C)NC2=O)cc1 (cyclo(LLVLY(Me)))
IC50 [7]: 3.22 µM
inhibition of growth at 20 µg/mL [2]: 98.2%
inhibition of growth at 2 µg/mL [8]: 86.5%
inhibition of growth at 2 µg/mL [9]: 91.3%
IC50 [10]: 2.41 µM
IC50 [11]: 3.38 µM
Activity [12]: Active
inhibition of growth at 2 µg/mL [13]: 40.5%
inhibition of growth at 20 µg/mL [3]: 93.8%
Activity [14]: Active
IC50 [15]: 2.87 µM
inhibition of growth at 20 µg/mL [4]: 43.2%
inhibition of growth at 20 µg/mL [5]: 88.5%
IC50 [16]: 11.1 µM
Activity [17]: Non-toxic
IC50 [18]: 3.54 µM
inhibition of growth at 2 µg/mL [19]: 76.4%
Activity [20]: Active
inhibition of growth at 20 µg/mL [6]: 80.8%
inhibition of growth at 2 µg/mL [21]: 50.9%
inhibition of growth at 2 µg/mL [22]: 78.8%

CC(C)C[C@@H]1NC(=O)[C@H](Cc2ccc(Br)cc2)NC(=O)[C@H](CC(C)C)NC(=O)[C@H](C(C)C)NC(=O)[C@H](CC(C)C)NC1=O (cyclo([Phe(4-Br)]LLVL))
IC50 [1]: 0.58 µg/mL (≈ 0.873 µM)
inhibition of growth at 20 µg/mL [4]: 89.3%
inhibition of growth at 20 µg/mL [5]: 80.2%
inhibition of growth at 20 µg/mL [6]: 74.3%
